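Cultured in 96-well plates, cells were exposed to test compound for 48 hours across five concentrations. The concentration for full growth arrest is given as TGI.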

For seven molecules, TGI results are on record in PubChem BioAssay (NCI).

Some test systems named below: SR leukemia; LOX IMVI melanoma; UO-31 renal; HCC-2998 colon; HOP-62 NSCLC; NCI-H460 lung; BT-549 breast; SF-268 CNS; COLO 205 colon; TK-10 renal; HS 578T breast; SF-539 CNS; CAKI-1 renal; MDA-N; EKVX NSCLC; NCI/ADR-RES ovarian; SK-OV-3 ovarian; MDA-MB-435; NCI-H23 lung; HOP-92 NSCLC.
What all share (experiment): DTP human tumour cell line panel, 48 h

What is called TGI is the concentration giving total growth inhibition. Higher therefore signals lower sensitivity of the cells. `Cc1cc(S(=O)(=O)NC2=NCCCN2)c(S)cc1Cl`: the TGI is 56.1 µM in the assay with SR leukemia; 42.6 µM in the assay on LOX IMVI melanoma; above 100 µM in the assay on UO-31 renal; above 100 µM in the assay with HCC-2998 colon; above 100 µM in the assay on HOP-62 NSCLC; above 100 µM with NCI-H460 lung. Further, the TGI was 36.4 µM in the assay on BT-549 breast; above 100 µM with SF-268 CNS; above 100 µM in the assay with COLO 205 colon; 74.7 µM in the assay with TK-10 renal; 86.7 µM in the assay with HS 578T breast; above 100 µM with SF-539 CNS. Moreover, the TGI in the assay with CAKI-1 renal is above 100 µM; in the assay with MDA-N, above 100 µM; in the assay on EKVX NSCLC, above 100 µM; in the assay with NCI/ADR-RES ovarian, above 100 µM; in the assay with SK-OV-3 ovarian, above 100 µM; with MDA-MB-435, 54.7 µM.
As for `CN(C)CCNC(=O)c1cccc2c1Oc1cccc([N+](=O)[O-])c1O2`, the TGI in the assay with SR leukemia worked out at 76.1 µM; in the assay with UO-31 renal, 32.5 µM; in the assay on HCC-2998 colon, 56.1 µM; with HOP-62 NSCLC it was 30.6 µM; in the assay with NCI-H460 lung it was 35.4 µM; with BT-549 breast, 33.6 µM. For the same molecule, the TGI with SF-268 CNS was 42.7 µM; in the assay on COLO 205 colon, 36 µM; with TK-10 renal it was above 100 µM; in the assay on HS 578T breast it was 40.2 µM; in the assay on SF-539 CNS, 40.1 µM; with CAKI-1 renal, 33.7 µM. Also, the TGI turned out to be 31.6 µM in the assay on MDA-N; 72.8 µM in the assay with NCI-H23 lung; 56.7 µM in the assay on NCI/ADR-RES ovarian; 37.4 µM in the assay on SK-OV-3 ovarian; 32.6 µM with MDA-MB-435.
Take `CCOC(=O)CC(=O)Nc1cccc2sc3ncccc3c(=O)c12`: the TGI in the assay on SR leukemia, in the assay on LOX IMVI melanoma, in the assay on UO-31 renal, in the assay on HCC-2998 colon, with HOP-62 NSCLC and in the assay on NCI-H460 lung was above 100 µM throughout. For the same molecule, the TGI in the assay on BT-549 breast, in the assay with SF-268 CNS, in the assay with COLO 205 colon, with TK-10 renal, in the assay on HS 578T breast and in the assay with SF-539 CNS was above 100 µM in each case. Moreover, the TGI with CAKI-1 renal, in the assay with MDA-N, in the assay on EKVX NSCLC, with NCI-H23 lung, in the assay with NCI/ADR-RES ovarian and in the assay with SK-OV-3 ovarian was above 100 µM each time. This molecule also gave a TGI with MDA-MB-435 above 100 µM.
Turning to `C1=Nc2ccc(cc2)-c2ccc(cc2)N=Cc2ccc(cc2)OCc2cccc(n2)COc2ccc1cc2`, the TGI was above 100 µM in the assay with SR leukemia; above 100 µM in the assay on UO-31 renal; above 100 µM in the assay with HOP-62 NSCLC; above 100 µM with NCI-H460 lung; above 100 µM with BT-549 breast; 62.1 µM with SF-268 CNS. Moreover, the concentration for total growth inhibition (TGI) with COLO 205 colon was above 100 µM; in the assay with HS 578T breast, 73.2 µM; with SF-539 CNS, above 100 µM; in the assay on CAKI-1 renal, above 100 µM; with MDA-N it was above 100 µM; in the assay on EKVX NSCLC it was above 100 µM. The TGI in the assay on NCI-H23 lung, with NCI/ADR-RES ovarian, in the assay with HOP-92 NSCLC, with SK-OV-3 ovarian and with MDA-MB-435 was above 100 µM each time.
For `Cc1c(NC(=O)CSC(=S)N(C)C)c(=O)n(-c2ccccc2)n1C`, the total growth inhibition concentration (TGI) in the assay on SR leukemia, with LOX IMVI melanoma, in the assay on UO-31 renal, with HCC-2998 colon, with HOP-62 NSCLC and with NCI-H460 lung was above 100 µM throughout. Further, the TGI in the assay on BT-549 breast, in the assay on SF-268 CNS, in the assay with COLO 205 colon, with TK-10 renal, with HS 578T breast and in the assay on SF-539 CNS was above 100 µM throughout. Moreover, the TGI in the assay with CAKI-1 renal, in the assay on MDA-N, in the assay with EKVX NSCLC, in the assay with NCI-H23 lung, in the assay on NCI/ADR-RES ovarian and in the assay with SK-OV-3 ovarian was above 100 µM in each case. Besides, the TGI in the assay on MDA-MB-435 was above 100 µM.
Turning to `CC1CC(=NC2CCCCC2)Nc2ccccc2N1Cc1ccccc1` (stereo not drawn), the TGI in the assay on SR leukemia is above 100 µM; in the assay on LOX IMVI melanoma it was 6.85 µM; with UO-31 renal it was 13.3 µM; in the assay on HCC-2998 colon, 11.5 µM; with HOP-62 NSCLC, 20.3 µM; in the assay with NCI-H460 lung, 14.5 µM. In addition, the TGI with BT-549 breast was 18.7 µM; in the assay on SF-268 CNS, 17.3 µM; in the assay with COLO 205 colon, 17 µM; in the assay on TK-10 renal it was 25.2 µM; with HS 578T breast, 19.7 µM; in the assay on SF-539 CNS, 22.5 µM. Besides, the TGI in the assay with CAKI-1 renal is 19.2 µM; in the assay on MDA-N, 12.5 µM; with EKVX NSCLC it was 21 µM; with NCI-H23 lung it was 22.3 µM; in the assay on NCI/ADR-RES ovarian, 19.9 µM; with SK-OV-3 ovarian, 23.4 µM. In addition, the TGI with MDA-MB-435 is 13.4 µM.
On to `COC(=O)[C@]12C3=C(O)C(=O)C[C@H]1OC[C@H]2C=CC3`, for which the TGI with SR leukemia, in the assay on LOX IMVI melanoma, in the assay with UO-31 renal, in the assay with HCC-2998 colon, in the assay with HOP-62 NSCLC and with NCI-H460 lung was above 100 µM each time. In addition, the concentration for total growth inhibition (TGI) in the assay on BT-549 breast, with SF-268 CNS, in the assay on COLO 205 colon, in the assay on TK-10 renal, in the assay on HS 578T breast and with CAKI-1 renal was above 100 µM in each case. Moreover, the TGI with MDA-N, with EKVX NSCLC, in the assay on NCI-H23 lung, in the assay with NCI/ADR-RES ovarian, in the assay on HOP-92 NSCLC and in the assay on SK-OV-3 ovarian was above 100 µM in each case. This molecule returned a TGI in the assay on MDA-MB-435 above 100 µM.
